Experimental data: the supplement of paper PMC10307832

compound: Cn1nnc2c(C(N)=O)ncn2c1=O [Temozolomide] + COc1cccc2cc(-c3nc([C@H]4CC[C@H](C(=O)O)CC4)n4ncnc(N)c34)[nH]c12 [OSI-027] (partner 0.5 µM); experiment: relative viability (nuclei count vs DMSO), 5 days (fraction); higher = more cells survive; settings: first compound 20 µM
Outline: (§1)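 Nuclei were stained with Hoechst during a one-step fixation (final 0.05% Triton X-100, 1% formaldehyde, 1 ug/ml Hoechst) carried out 5 days after dosing, then counted on 4× images. The cells, lung cancer lines in 1536-well plates, had been dosed by pin tool the day after seeding with one drug alone or a fixed anchor-drug dose plus five library-drug doses (not always all listed) in √10 steps. Relative viability is the nuclei count in treated wells divided by that in vehicle wells, and each value is the median of duplicate plates.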

Row | Cell Line | relative viability
1 | BEN | 0.306
2 | CAL-12T | 0.657
3 | COR-L23 | 0.652
4 | COR-L 105 | 0.303
5 | ChaGo-K-1 | 0.554
6 | EKVX | 0.591
7 | EMC-BAC-2 | 0.419
8 | EPLC-272H | 0.216
9 | H3255 | 0.208
10 | HARA | 0.226
11 | HCC-15 | 0.669
12 | HCC-44 | 0.477
13 | HCC-78 | 0.349
14 | HCC-366 | 0.921
15 | HCC-827 | 0.133
16 | HOP-62 | 0.908
17 | LC-2-ad | 0.737

Row | Cell Line | relative viability
18 | LCLC-97TM1 | 0.524
19 | LCLC-103H | 0.485
20 | LK-2 | 0.196
21 | LOU-NH91 | 0.493
22 | LU99A | 0.306
23 | LXF-289 | 0.63
24 | NCI-H23 | 0.461
25 | NCI-H441 | 0.651
26 | NCI-H522 | 0.648
27 | NCI-H1395 | 0.659
28 | NCI-H1623 | 0.297
29 | NCI-H1648 | 0.274
30 | NCI-H1650 | 0.409
31 | NCI-H1793 | 0.232
32 | NCI-H2170 | 0.34
33 | NCI-H2342 | 0.678
34 | SW 900 | 0.744

compound: C[C@@H](C(=O)N[C@@H](C1CCCCC1)C(=O)N2CCC[C@H]2C(=O)N[C@@H]3[C@@H](CC4=CC=CC=C34)OCC#CC#CCO[C@@H]5CC6=CC=CC=C6[C@@H]5NC(=O)[C@@H]7CCCN7C(=O)[C@H](C8CCCCC8)NC(=O)[C@H](C)NC)NC [AZD5582] + CS(=O)(=O)CCNCc1ccc(-c2ccc3ncnc(Nc4ccc(OCc5cccc(F)c5)c(Cl)c4)c3c2)o1 [Lapatinib] (partner 2 µM); experiment: as above; settings: first compound 0.001581 µM
Outline: as §1

Row | Cell Line | relative viability
35 | 201T | 1.03
36 | A549 | 0.896
37 | A-427 | 0.865
38 | ABC-1 | 0.932
39 | BEN | 0.478
40 | CAL-12T | 0.293
41 | COR-L23 | 0.982
42 | COR-L 105 | 0.351
43 | Calu-6 | 0.626
44 | EBC-1 | 0.187
45 | EKVX | 0.207
46 | EMC-BAC-2 | 0.782
47 | EPLC-272H | 0.313
48 | H3255 | 0.249
49 | HARA | 0.789
50 | HCC-15 | 0.644
51 | HCC-44 | 0.754

Row | Cell Line | relative viability
52 | HCC-78 | 0.703
53 | HCC-366 | 0.936
54 | HCC-827 | 0.222
55 | HOP-62 | 0.748
56 | IA-LM | 0.623
57 | LC-2-ad | 0.966
58 | LK-2 | 0.654
59 | LOU-NH91 | 0.815
60 | LU99A | 1.15
61 | LXF-289 | 0.895
62 | NCI-H23 | 0.664
63 | NCI-H1299 | 0.846
64 | NCI-H1395 | 1.08
65 | NCI-H1650 | 0.587
66 | NCI-H1793 | 0.777
67 | NCI-H2170 | 0.278

same assay, conditions: first compound 0.005 µM

Row | Cell Line | relative viability
68 | 201T | 1.16
69 | A549 | 0.983
70 | A-427 | 0.996
71 | ABC-1 | 1.19
72 | BEN | 0.67
73 | CAL-12T | 0.434
74 | COR-L23 | 1.08
75 | COR-L 105 | 0.424
76 | Calu-6 | 0.662
77 | EBC-1 | 0.226
78 | EKVX | 0.209
79 | EMC-BAC-2 | 0.903
80 | EPLC-272H | 0.16
81 | H3255 | 0.284
82 | HARA | 0.943
83 | HCC-15 | 0.734
84 | HCC-44 | 0.916

Row | Cell Line | relative viability
85 | HCC-78 | 0.794
86 | HCC-366 | 1.05
87 | HCC-827 | 0.183
88 | HOP-62 | 1.06
89 | IA-LM | 0.725
90 | LC-2-ad | 1.07
91 | LCLC-97TM1 | 0.627
92 | LK-2 | 1.03
93 | LOU-NH91 | 0.817
94 | LU99A | 1.28
95 | LXF-289 | 0.929
96 | NCI-H23 | 0.951
97 | NCI-H1299 | 0.883
98 | NCI-H1395 | 1.07
99 | NCI-H1650 | 0.832
100 | NCI-H1793 | 0.898
101 | NCI-H2170 | 0.288

same assay, conditions: first compound 0.01581 µM

Row | Cell Line | relative viability
102 | 201T | 1.05
103 | A549 | 0.898
104 | A-427 | 0.942
105 | ABC-1 | 1.01
106 | BEN | 0.764
107 | CAL-12T | 0.382
108 | COR-L23 | 1.07
109 | COR-L 105 | 0.315
110 | Calu-6 | 1.14
111 | EBC-1 | 0.193
112 | EKVX | 0.169
113 | EMC-BAC-2 | 0.865
114 | EPLC-272H | 0.573
115 | H3255 | 0.208
116 | HARA | 0.756
117 | HCC-15 | 0.521
118 | HCC-44 | 1.11

Row | Cell Line | relative viability
119 | HCC-78 | 0.603
120 | HCC-366 | 0.961
121 | HCC-827 | 0.179
122 | HOP-62 | 1.02
123 | IA-LM | 0.809
124 | LC-2-ad | 0.888
125 | LCLC-97TM1 | 0.404
126 | LK-2 | 0.965
127 | LOU-NH91 | 0.794
128 | LU99A | 0.923
129 | LXF-289 | 0.823
130 | NCI-H23 | 0.783
131 | NCI-H1299 | 0.971
132 | NCI-H1650 | 0.581
133 | NCI-H1793 | 0.592
134 | NCI-H2170 | 0.293

same assay, conditions: first compound 0.05 µM

Row | Cell Line | relative viability
135 | 201T | 1.2
136 | A549 | 0.851
137 | A-427 | 0.831
138 | ABC-1 | 1.44
139 | BEN | 0.417
140 | CAL-12T | 0.326
141 | COR-L23 | 1.1
142 | COR-L 105 | 0.421
143 | Calu-6 | 0.568
144 | EBC-1 | 0.255
145 | EKVX | 0.199
146 | EMC-BAC-2 | 0.564
